Reference: ChEMBL document CHEMBL1201862, “PubChem BioAssay data set” (2004)
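48-hour exposure; five concentrations; linearly interpolated endpoints. At the GI50, growth is halved.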 Calls of active or inactive are those of the source. No stated cut-off is given here; in the data, active = GI50 up to about 1.1 µM and inactive = higher.

How the values were obtained:
Assay in all cases: DTP human tumour cell line panel, 48 h
SF-268 = test system: SF-268
RXF 393 = test system: RXF 393
SF-539 = test system: SF-539
Malme-3M = test system: Malme-3M
IGROV-1 = test system: IGROV-1
HOP-92 = test system: HOP-92
SK-MEL-2 = test system: SK-MEL-2
SK-MEL-5 = test system: SK-MEL-5
HOP-62 = test system: HOP-62
HCT-116 = test system: HCT-116
K562 = test system: K562
NCI-H226 = test system: NCI-H226
OVCAR-4 = test system: OVCAR-4
NCI-H460 = test system: NCI-H460
SW-620 = test system: SW-620
LOX IMVI = test system: LOX IMVI
TK-10 = test system: TK-10
SK-MEL-28 = test system: SK-MEL-28
SK-OV-3 = test system: SK-OV-3
SR = test system: SR

Measured: GI50

O=c1[nH]c(Br)nc2c(Br)c[nH]c12
inactive: SF-268 > 100 µM | RXF 393 > 100 µM | SF-539 > 100 µM | Malme-3M > 100 µM | IGROV-1 > 100 µM | HOP-92 > 100 µM | SK-MEL-2 > 100 µM | SK-MEL-5 > 100 µM | HOP-62 > 100 µM | HCT-116 > 100 µM | K562 > 100 µM | NCI-H226 > 100 µM | OVCAR-4 > 100 µM | NCI-H460 > 100 µM | SW-620 > 100 µM | LOX IMVI > 100 µM | TK-10 > 100 µM | SK-MEL-28 > 100 µM | SK-OV-3 > 100 µM

O=C1OC(c2ccccc2)=N/C1=C/NC(CO)C(=O)O (configuration not stated)
inactive: SF-268 > 100 µM | RXF 393 > 100 µM | SF-539 > 100 µM | Malme-3M > 100 µM | IGROV-1 67.1 µM | HOP-92 > 100 µM | SK-MEL-2 > 100 µM | SK-MEL-5 > 100 µM | HOP-62 > 100 µM | HCT-116 > 100 µM | K562 > 100 µM | NCI-H226 > 100 µM | OVCAR-4 > 100 µM | NCI-H460 > 100 µM | SW-620 > 100 µM | LOX IMVI > 100 µM | TK-10 > 100 µM | SK-MEL-28 > 100 µM | SK-OV-3 > 100 µM

Oc1ccc([Te]CCNCC[Te]c2ccc(O)cc2)cc1
inactive: SF-268 11.1 µM | SF-539 > 10 µM | Malme-3M 22.6 µM | IGROV-1 27.9 µM | SK-MEL-5 11.9 µM | HOP-62 18.2 µM | HCT-116 5.96 µM | K562 10 µM | NCI-H226 21.3 µM | NCI-H460 4.67 µM | SW-620 23.1 µM | LOX IMVI 12.5 µM | TK-10 30.3 µM | SR 5.19 µM | SK-OV-3 25 µM

OCCOCn1cc(Cn2ncc3c(SCc4ccccc4)ncnc32)nn1
inactive: SF-268 75.5 µM | RXF 393 31.6 µM | SF-539 39 µM | Malme-3M 76.2 µM | IGROV-1 53.2 µM | HOP-92 99.8 µM | SK-MEL-2 37.2 µM | SK-MEL-5 30 µM | HOP-62 48.1 µM | HCT-116 34.7 µM | K562 20.4 µM | NCI-H226 62.8 µM | OVCAR-4 59.3 µM | NCI-H460 38.3 µM | SW-620 26.7 µM | LOX IMVI 61.7 µM | TK-10 > 100 µM | SK-MEL-28 > 100 µM | SK-OV-3 61.5 µM

COC(=O)C(=O)C(C(=O)C(=O)Nc1nnc(S)[nH]1)c1nc2ccc([N+](=O)[O-])cc2nc1O (configuration not stated)
inactive: SF-268 > 100 µM | RXF 393 > 100 µM | SF-539 > 100 µM | Malme-3M > 100 µM | IGROV-1 91.4 µM | HOP-92 > 100 µM | SK-MEL-2 > 100 µM | SK-MEL-5 > 100 µM | HOP-62 > 100 µM | HCT-116 > 100 µM | K562 57.8 µM | NCI-H226 > 100 µM | OVCAR-4 > 100 µM | NCI-H460 > 100 µM | SW-620 > 100 µM | LOX IMVI > 100 µM | TK-10 > 100 µM | SK-MEL-28 > 100 µM | SK-OV-3 > 100 µM

CC1=C[C@H](C[C@]2(C)c3c(c4c(C)cccc4oc3=O)O[C@@H]2C)OC1=O
inactive: SF-268 24.4 µM | SF-539 > 100 µM | Malme-3M 29.9 µM | IGROV-1 > 100 µM | SK-MEL-2 > 100 µM | SK-MEL-5 > 100 µM | HOP-62 > 100 µM | HCT-116 15.7 µM | K562 28 µM | NCI-H226 > 100 µM | NCI-H460 > 100 µM | SW-620 21.7 µM | LOX IMVI 34.3 µM | TK-10 > 100 µM | SK-MEL-28 > 10 µM | SR 22.4 µM | SK-OV-3 > 100 µM

O=C1Cc2c([nH]c3c(Br)cccc23)-c2ccccc2N1
inactive: SF-268 77.1 µM | SF-539 49.5 µM | Malme-3M > 100 µM | IGROV-1 > 100 µM | SK-MEL-2 > 100 µM | SK-MEL-5 30.1 µM | HOP-62 37.1 µM | HCT-116 > 10 µM | K562 18.2 µM | NCI-H226 > 100 µM | NCI-H460 45.9 µM | SW-620 38.1 µM | LOX IMVI 25.8 µM | SR 19.1 µM | SK-OV-3 37.2 µM

Nc1nc(OCc2ccccc2)c2nc[nH]c2n1 [6-O-BENZYLGUANINE]
inactive: SF-268 70 µM | RXF 393 32.5 µM | SF-539 91.4 µM | Malme-3M 87.9 µM | IGROV-1 64.6 µM | HOP-92 64.4 µM | SK-MEL-2 68.9 µM | SK-MEL-5 81.1 µM | HOP-62 51.6 µM | HCT-116 59.6 µM | K562 86.5 µM | NCI-H226 47.5 µM | OVCAR-4 69.8 µM | NCI-H460 67.6 µM | SW-620 169 µM | LOX IMVI 64.6 µM | TK-10 47.1 µM | SK-MEL-28 140 µM | SK-OV-3 75.7 µM
